Test results published in US9040523B2, “Antifungal 5,6-dihydro-4H-pyrrolo[1,2-α][1,4]-benzodiazepines and 6H-pyrrolo[1,2-α][1,4]benzodiazepines substituted with benzene derivatives” (JANSSEN PHARMACEUTICA NV, priority 2010, dated 2015).

How the values were obtained:
Cytochrome P450 2C8 = target: T1, Cytochrome P450 2C8 (Homo sapiens, UniProt P10632); experiment: Human liver microsomal cytochrome P450 cocktail inhibition assay, Protocol C; format: in vitro ADME; details: human liver microsomes 0.2 mg/ml, probe amodiaquine 2 microM; for IC50: read-out: 2C8_Amod pIC50 (converted)
T1 construct: tissue BD Gentest; host or cells: human liver microsomes
T1 sequence (P10632 1-490): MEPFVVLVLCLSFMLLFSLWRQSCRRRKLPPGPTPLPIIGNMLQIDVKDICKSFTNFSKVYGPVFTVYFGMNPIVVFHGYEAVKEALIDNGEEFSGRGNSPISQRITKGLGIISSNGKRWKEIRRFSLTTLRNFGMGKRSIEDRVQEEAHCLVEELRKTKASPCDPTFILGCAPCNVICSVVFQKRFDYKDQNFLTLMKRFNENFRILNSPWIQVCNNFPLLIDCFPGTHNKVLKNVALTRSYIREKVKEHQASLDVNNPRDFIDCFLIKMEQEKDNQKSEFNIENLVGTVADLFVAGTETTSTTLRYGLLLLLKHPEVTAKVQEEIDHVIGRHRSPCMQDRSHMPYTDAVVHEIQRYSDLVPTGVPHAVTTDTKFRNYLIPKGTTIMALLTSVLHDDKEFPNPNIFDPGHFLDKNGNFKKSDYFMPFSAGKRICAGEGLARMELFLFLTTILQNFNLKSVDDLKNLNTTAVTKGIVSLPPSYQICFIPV
Method: (§1) Probe substrates and final assay concentrations with the appropriate internal standard are outlined in Table 6a.
(§2) Assays were performed in 0.1 M phosphate buffer (pH 7.4), containing 0.2 mg/ml human liver microsomes (BD Gentest) and a probe substrate mix consisting of: phenacetin, tolbutamide, S-mephenyloin, dextromethorphan, amodiaquine and midazolam (Table 6a) and a range of test compound concentrations (0 to 30 micromolar) in a total volume of 100 microliters. After a 10 min pre-incubation at 37° C., the reaction was started with addition of NADPH at a final concentration of 1.0 mM. […] The samples are centrifuged for 10 min at 4° C. at 4000 rpm and 60 microliters supernatant is diluted with 180 microliters water. Each sample is injected onto a UPLC/MS system for the simultaneous measurement of the probe substrate metabolites and their associated deuterated internal standards. Percentage inhibition is calculated according to: %-inhibition=(1−Ri/R)*100, whereby Ri and R are the metabolite to internal standard peak area ratios in the presence and absence of inhibitor respectively.
(§3) Percentage inhibition data are plotted against the Log transformed test compound concentration and after curve fitting the IC50-value is determined.

Cytochrome P450 1A2 = target: T2, Cytochrome P450 1A2 (Homo sapiens, UniProt P05177); experiment: as above; details: for 1A2_Phen pIC50: human liver microsomes 0.2 mg/ml, probe phenacetin 80 microM
T2 sequence (P05177 1-516): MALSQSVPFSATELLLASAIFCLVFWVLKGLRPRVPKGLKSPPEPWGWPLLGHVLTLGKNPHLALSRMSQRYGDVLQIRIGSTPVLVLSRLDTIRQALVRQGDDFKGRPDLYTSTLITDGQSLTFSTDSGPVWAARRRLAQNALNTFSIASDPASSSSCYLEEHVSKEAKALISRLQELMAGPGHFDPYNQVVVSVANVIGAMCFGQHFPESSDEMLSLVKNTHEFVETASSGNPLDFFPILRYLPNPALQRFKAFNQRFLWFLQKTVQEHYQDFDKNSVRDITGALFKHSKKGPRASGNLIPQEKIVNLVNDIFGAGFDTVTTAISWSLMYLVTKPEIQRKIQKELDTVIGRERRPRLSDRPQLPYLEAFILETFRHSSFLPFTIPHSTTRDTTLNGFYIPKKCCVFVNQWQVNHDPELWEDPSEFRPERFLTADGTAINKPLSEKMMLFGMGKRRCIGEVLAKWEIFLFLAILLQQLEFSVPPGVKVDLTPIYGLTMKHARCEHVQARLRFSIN
Method: as §1, §2, §3

Cytochrome P450 2C19 = Cytochrome P450 2C19 (Homo sapiens, UniProt P33261); experiment: as above; details: 2C19_S-Meph pIC50, human liver microsomes 0.2 mg/ml; probe S-mephenytoin 30 microM
Method: as §1, §2, §3

Cytochrome P450 2D6 = Cytochrome P450 2D6 (Homo sapiens, UniProt P10635); experiment: as above; details: 2D6_Dextro pIC50, human liver microsomes 0.2 mg/ml; probe dextromethorphan 3 microM
Method: as §1, §2, §3

CYP2C9 = CYP2C9 (Homo sapiens, UniProt P11712); experiment: as above; details: human, liver microsomes, pH 7.4, probe tolbutamide (100 microM), 2C9 Tolbut pIC50, human liver microsomes 0.2 mg/ml
Method: as §1, §2, §3

CYP3A4/5 = CYP3A4/5 (Homo sapiens, UniProt P08684); experiment: in vitro; details: liver microsomes, pH 7.4, probe midazolam (2 microM)
Method: as §1
After a 10 min pre-incubation at 37° C., the reaction was started with addition of NADPH at a final concentration of 1.0 mM. […] The samples are centrifuged for 10 min at 4° C. at 4000 rpm and 60 microliters supernatant is diluted with 180 microliters water. Each sample is injected onto a UPLC/MS system for the simultaneous measurement of the probe substrate metabolites and their associated deuterated internal standards.
as §3

Cytochrome P450 2C9 = Cytochrome P450 2C9 (Homo sapiens, UniProt P11712); experiment: Human liver microsomal cytochrome P450 cocktail inhibition assay, Protocol C; details: 2C9 Tolbut pIC50, human liver microsomes 0.2 mg/ml; probe tolbutamide 100 microM
Method: as §1, §2, §3

[1] = tested on: Trichophyton mentagrophytes B70554; experiment: Antifungal activity in vitro (resazurin susceptibility screen), Inf. G; format: cell-based; details: Trichophyton mentagrophytes, B70554, Trichophyton mentagrophytes B70554; 27 °C, 7 days, resa time 24 hours; read-out: Inf. G pIC50 (converted)
Summary of the method: (§4)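 Each well was inoculated with 10^3 cfu of fungus onto dried, pre-spotted compound serial dilutions in RPMI-MOPS medium, with fungal growth read by resazurin. Growth was referenced to drug-free culture (100%) and medium-only (0%) controls on each plate.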

CYP2D6 = CYP2D6 (Homo sapiens, UniProt P10635); experiment: Human liver microsomal cytochrome P450 inhibition assay, Protocol B; format: in vitro ADME; details: pH 7.4; at 30 μM; solvent condition B (0.30% DMSO+0.68% acetonitrile); human liver microsomes; probe dextromethorphan
Method: (§5) The samples are centrifuged for 10 min at 4° C. at 4000 rpm and the supernatant is analyzed. Analysis for CYP1A2 with resorufin was performed by fluorescence while the CY2D6 inhibition potential was assessed using LC-MS detection.

CYP1A2 = target: T3, CYP1A2 (Homo sapiens, UniProt P05177); experiment: as above; format: in vitro ADME; details: liver microsomes, pH 7.4, probe resorufin, at 30 μM
T3 sequence (P05177 1-516): T2 sequence (P05177 1-516)
Method: as §5

Rhizopus oryzae IHEM5223 = experiment: Antifungal activity in vitro (resazurin susceptibility screen), Inf. J; format: cell-based; details: Rhizopus arrhizus, 37 °C, 24 hours, resa time 6 hours, read-out: Inf. J pIC50 (converted)
Method: (§6) The standard susceptibility screen was performed in 96-well plates (U-bottom, Greiner Bio-One). […] These serial dilutions (10 n1) were then spotted onto test-plates that could be stored in the dark at 4° C. for a maximum period of 2 weeks. […] The different fungal species/isolates (Table 3a) were cryopreserved and 1/1000 diluted in medium just prior to use. A standard inoculum of 200 μl containing 10^3 colony-forming unit (cfu) was then added to each well. A positive control (100% growth=fungal culture without antifungal) and a negative control (0% growth ═RPMI-MOPS medium) were included on each plate. […] [table]

Microsporum canis B68128 = experiment: Antifungal activity in vitro (resazurin susceptibility screen), Inf. B; format: cell-based; details: Microsporum canis, B68128, Microsporum canis B68128; 27 °C, 9 days, resa time 24 hours; read-out: Inf. B pIC50 (converted)
Summary of the method: as §4

[2] = tested on: Scedosporium prolificans IHEM21157; experiment: Antifungal activity in vitro (resazurin susceptibility screen), Inf. I; format: cell-based; details: Lomentospora prolificans, 37 °C, 48 hours, resa time 17 hours, read-out: Inf. I pIC50 (converted)
Method: as §6

[3] = tested on: Mucor circinelloides IHEM21105; experiment: Antifungal activity in vitro (resazurin susceptibility screen), Inf. L; format: cell-based; details: 27 °C, 48 hours, resa time 17 hours, read-out: Inf. L pIC50 (converted)
Method: as §6

[4] = tested on: Candida parapsilosis B66126; experiment: Antifungal activity in vitro (resazurin susceptibility screen), Inf. D; format: cell-based; details: Lodderomyces parapsilosis; Candida parapsilosis B66126; 37 °C, 24 hours, resa time 4 hours; read-out: Inf. D pIC50 (converted)
Summary of the method: as §4

[5] = tested on: Sporothrix schenkii B62482; experiment: Antifungal activity in vitro (resazurin susceptibility screen), Inf. A; format: cell-based; details: Sporothrix, B62482, Sporothrix schenkii B62482; 27 °C, 4 days, resa time 24 hours; highest in-test concentration 64 μM; read-out: Inf. A pIC50 (converted)
Summary of the method: (§7)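 Growth was normalised between a fungal culture lacking antifungal (100%) and RPMI-MOPS medium only (0%), both on every plate. Wells held pre-spotted serial dilutions of compound and received 10^3 cfu of freshly diluted (1/1000) cryopreserved fungus.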

[6] = tested on: Trichophyton rubrum B68183; experiment: Antifungal activity in vitro (resazurin susceptibility screen), Inf. C; format: cell-based; details: Trichophyton rubrum B68183; 27 °C, 7 days, resa time 24 hours; read-out: Inf. C pIC50 (converted)
Summary of the method: as §7

[7] = Liver metabolic stability assay, gpLM; format: in vitro ADME, guinea pig; details: guinea pig microsomes, 1 mg protein/ml, 5 μM test compound, 15 min, 37 °C
[8] = tested on: Aspergillus fumigatus B42928; experiment: Antifungal activity in vitro (resazurin susceptibility screen), Inf. E; format: cell-based; details: Aspergillus fumigatus B42928; 27 °C, 48 hours, resa time 17 hours; read-out: Inf. E pIC50 (converted)
Summary of the method: as §7

[9] = tested on: Cryptococcus neoformans B66663; experiment: Antifungal activity in vitro (resazurin susceptibility screen), Inf. F; format: cell-based; details: Cryptococcus neoformans, B66663, Cryptococcus neoformans B66663; 37 °C, 24 hours, resa time 4 hours; read-out: Inf. F pIC50 (converted)
Summary of the method: as §7

[10] = tested on: Rhizomucor miehei IHEM13391; experiment: Antifungal activity in vitro (resazurin susceptibility screen), Inf. K; format: cell-based; details: 37 °C, 48 hours, resa time 17 hours, read-out: Inf. K pIC50 (converted)
Method: as §6

[11] = Liver metabolic stability assay, hLM; format: in vitro ADME, human; details: human liver microsomes, 1 mg protein/ml, 5 μM test compound, 15 min, 37 °C
[12] = tested on: Scedosporium apiospermum IHEM3817; experiment: Antifungal activity in vitro (resazurin susceptibility screen), Inf. H; format: cell-based; details: 37 °C, 48 hours, resa time 17 hours, read-out: Inf. H pIC50 (converted)
Method: as §6

Cytochrome P450 2D6, sequence (P10635 whole entry): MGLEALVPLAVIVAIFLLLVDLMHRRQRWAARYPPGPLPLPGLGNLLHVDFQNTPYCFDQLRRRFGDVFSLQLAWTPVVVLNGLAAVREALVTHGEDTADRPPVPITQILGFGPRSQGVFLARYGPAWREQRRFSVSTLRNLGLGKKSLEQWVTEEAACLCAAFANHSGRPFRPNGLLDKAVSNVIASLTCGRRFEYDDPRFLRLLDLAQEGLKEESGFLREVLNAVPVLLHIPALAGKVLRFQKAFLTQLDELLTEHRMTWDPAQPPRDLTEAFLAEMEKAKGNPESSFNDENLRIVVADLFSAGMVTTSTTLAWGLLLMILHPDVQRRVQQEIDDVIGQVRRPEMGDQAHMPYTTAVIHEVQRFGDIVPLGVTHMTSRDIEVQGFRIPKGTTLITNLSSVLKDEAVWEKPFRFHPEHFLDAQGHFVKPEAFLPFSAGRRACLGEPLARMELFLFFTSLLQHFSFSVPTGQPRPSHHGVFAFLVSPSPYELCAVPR
Cytochrome P450 2C19, sequence (P33261 whole entry): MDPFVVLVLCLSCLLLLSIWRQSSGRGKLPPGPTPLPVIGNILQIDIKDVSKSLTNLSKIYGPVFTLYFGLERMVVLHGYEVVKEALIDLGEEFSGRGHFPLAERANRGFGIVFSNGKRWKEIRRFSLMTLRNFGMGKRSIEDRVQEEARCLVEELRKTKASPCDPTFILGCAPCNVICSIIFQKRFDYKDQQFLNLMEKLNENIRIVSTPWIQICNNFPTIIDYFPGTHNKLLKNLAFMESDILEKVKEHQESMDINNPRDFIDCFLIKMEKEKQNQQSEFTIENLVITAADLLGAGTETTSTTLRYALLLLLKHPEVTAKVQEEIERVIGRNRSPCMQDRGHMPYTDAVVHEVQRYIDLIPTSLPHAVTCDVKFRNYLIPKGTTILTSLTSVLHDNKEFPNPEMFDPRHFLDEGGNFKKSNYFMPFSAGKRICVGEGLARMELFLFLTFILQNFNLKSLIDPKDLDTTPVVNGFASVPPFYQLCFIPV
CYP3A4/5, sequence (P08684 2-503): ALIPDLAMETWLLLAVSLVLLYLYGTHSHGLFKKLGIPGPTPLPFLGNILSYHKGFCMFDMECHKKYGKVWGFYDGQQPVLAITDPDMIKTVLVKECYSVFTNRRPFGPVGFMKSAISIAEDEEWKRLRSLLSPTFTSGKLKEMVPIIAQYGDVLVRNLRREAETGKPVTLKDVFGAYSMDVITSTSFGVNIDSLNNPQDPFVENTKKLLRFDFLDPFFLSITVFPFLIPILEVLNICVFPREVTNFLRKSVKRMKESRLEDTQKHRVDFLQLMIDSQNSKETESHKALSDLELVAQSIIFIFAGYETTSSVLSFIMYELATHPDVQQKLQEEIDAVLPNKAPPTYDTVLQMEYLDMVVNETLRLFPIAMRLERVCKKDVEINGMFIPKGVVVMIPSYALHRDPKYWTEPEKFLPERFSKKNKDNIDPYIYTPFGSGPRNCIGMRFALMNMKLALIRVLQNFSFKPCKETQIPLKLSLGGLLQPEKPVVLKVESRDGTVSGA
CYP2C9, sequence (P11712 whole entry): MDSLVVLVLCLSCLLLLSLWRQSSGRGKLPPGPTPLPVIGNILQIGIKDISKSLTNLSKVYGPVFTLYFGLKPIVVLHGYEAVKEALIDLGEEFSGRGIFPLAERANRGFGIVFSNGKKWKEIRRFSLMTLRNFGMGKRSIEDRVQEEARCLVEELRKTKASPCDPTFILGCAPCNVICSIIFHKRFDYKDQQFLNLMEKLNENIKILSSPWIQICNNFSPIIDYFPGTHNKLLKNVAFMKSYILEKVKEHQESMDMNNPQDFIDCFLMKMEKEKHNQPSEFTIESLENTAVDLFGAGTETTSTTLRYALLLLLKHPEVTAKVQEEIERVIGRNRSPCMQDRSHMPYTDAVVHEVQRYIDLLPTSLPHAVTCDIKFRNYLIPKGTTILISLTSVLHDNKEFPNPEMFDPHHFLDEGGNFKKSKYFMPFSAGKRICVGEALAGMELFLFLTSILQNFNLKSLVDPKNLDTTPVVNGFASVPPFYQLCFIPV
Cytochrome P450 2C9, sequence (P11712 whole entry): as above
CYP2D6, sequence (P10635 whole entry): as the sequence (P10635 whole entry) above

Compound | IC50 (Cytochrome P450 2C8) | IC50 (Cytochrome P450 1A2) | IC50 (Cytochrome P450 2C19) | IC50 (Cytochrome P450 2D6) | IC50 at 10 min (CYP2C9) | IC50 at 10 min (CYP3A4/5) | 1A2_Phen pIC50 (Cytochrome P450 1A2) | IC50 (Cytochrome P450 2C9) | also measured
CCc1ccc(C2NCc3c(Cl)cccc3-n3cccc32)cc1 (stereo not shown) | > 10 µM | > 10 µM | 1 µM | 3.16 µM | 10 µM | – | – | – | –
Br.CCc1ccc(C2NCc3c(Cl)cccc3-n3cccc32)cc1 (stereo not shown) | – | – | 0.794 µM | 2 µM | – | > 10 µM | <5.0 | 7.94 µM | 2C8_Amod pIC50 (Cytochrome P450 2C8): <5.0
CCc1ccc(C2NCc3ccc(Cl)cc3-n3cccc32)cc1 (stereo not shown) | > 10 µM | > 10 µM | 0.316 µM | 3.98 µM | 10 µM | 6.31 µM | – | – | –
CC(=O)c1ccc(C2=NCc3ccc(Cl)cc3-n3cccc32)cc1 [Compound 18, 1-[4-(9-chloro-6H-pyrrolo[1,2-a][1,4]benzodiazepin-4-yl)phenyl]-ethanone] | – | – | – | – | – | – | – | – | IC50 [1]: 1 µM; inhibition at 10 min, 30 µM (CYP2D6): 40 to 45%; inhibition at 10 min, 30 µM (CYP1A2; solvent condition A (0.15% DMSO+[…] acetonitrile)): 20 to 25%; inhibition at 10 min, 30 µM (CYP1A2; solvent condition B (0.30% DMSO+0.68% acetonitrile)): 25 to 35%; IC50 (Rhizopus oryzae IHEM5223): > 63.1 µM; IC50 (Microsporum canis B68128): 2 µM; IC50 [2]: 12.6 µM; IC50 [3]: > 63.1 µM; IC50 [4]: 63.1 µM; IC50 [5]: 7.94 µM; IC50 [6]: 0.316 µM; %-compound metabolised Met_gpLM [7]: 36%; IC50 [8]: 0.501 µM; melting point: 114.4 to 115.7 °C; IC50 [9]: 1.58 µM; IC50 [10]: > 63.1 µM; %-compound metabolised_Met_hLM [11]: 17%; IC50 [12]: 39.8 µM
Br.CC(=O)c1ccc(C2NCc3c(Cl)cccc3-n3cccc32)cc1 (stereo not shown) [drawing 96] | – | – | 1.26 µM | 2 µM | – | 5.01 µM | <5.0 | 2.51 µM | –
